Measured values reported in ChEMBL document CHEMBL4507282, “Data for DCP probe BI-1950” (2021).

Key:
[1] = target: 5-hydroxytryptamine receptor 1D (Homo sapiens) (UniProt P28221); conditions: Compound concentration 10.0 uM
[2] = target: Ephrin type-A receptor 1 (Homo sapiens) (UniProt P21709); conditions: Compound concentration 1000.0 nM
[3] = target: Homeodomain-interacting protein kinase 2 (Homo sapiens) (UniProt Q9H2X6); conditions: Compound concentration 1000.0 nM
[4] = target: Megakaryocyte-associated tyrosine-protein kinase (Homo sapiens) (UniProt P42679); conditions: Compound concentration 1000.0 nM
[5] = target: Ephrin type-A receptor 3 (Homo sapiens) (UniProt P29320); conditions: Compound concentration 1000.0 nM
[6] = target: Phosphatidylinositol 3-kinase catalytic subunit type 3 (Homo sapiens) (UniProt Q8NEB9); conditions: Compound concentration 1000.0 nM
[7] = target: Mitogen-activated protein kinase 9 (Homo sapiens) (UniProt P45984); conditions: Compound concentration 1000.0 nM
[8] = target: Serine/threonine-protein kinase 25 (Homo sapiens) (UniProt O00506); conditions: Compound concentration 1000.0 nM
[9] = target: Protein kinase C iota type (Homo sapiens) (UniProt P41743); conditions: Compound concentration 1000.0 nM
[10] = target: Delta-type opioid receptor (Homo sapiens) (UniProt P41143); conditions: Compound concentration 10.0 uM
[11] = target: Serine/threonine-protein kinase Sgk2 (Homo sapiens) (UniProt Q9HBY8); conditions: Compound concentration 1000.0 nM
[12] = target: cAMP-dependent protein kinase catalytic subunit beta (Homo sapiens) (UniProt P22694); conditions: Compound concentration 1000.0 nM
[13] = target: NT-3 growth factor receptor (Homo sapiens) (UniProt Q16288); conditions: Compound concentration 1000.0 nM
[14] = target: Serine/threonine-protein kinase 3 (Homo sapiens) (UniProt Q13188); conditions: Compound concentration 1000.0 nM
[15] = target: Receptor tyrosine-protein kinase erbB-2 (Homo sapiens) (UniProt P04626); conditions: Compound concentration 1000.0 nM
[16] = target: Tyrosine-protein kinase Tec (Homo sapiens) (UniProt P42680); conditions: Compound concentration 1000.0 nM
[17] = system: eIF-2-alpha kinase GCN2 (Homo sapiens), Q9P2K8 [S808G]; conditions: Compound concentration 1000.0 nM
Sequence of eIF-2-alpha kinase GCN2 (Homo sapiens), Q9P2K8 [S808G] (Q9P2K8 whole entry S808G): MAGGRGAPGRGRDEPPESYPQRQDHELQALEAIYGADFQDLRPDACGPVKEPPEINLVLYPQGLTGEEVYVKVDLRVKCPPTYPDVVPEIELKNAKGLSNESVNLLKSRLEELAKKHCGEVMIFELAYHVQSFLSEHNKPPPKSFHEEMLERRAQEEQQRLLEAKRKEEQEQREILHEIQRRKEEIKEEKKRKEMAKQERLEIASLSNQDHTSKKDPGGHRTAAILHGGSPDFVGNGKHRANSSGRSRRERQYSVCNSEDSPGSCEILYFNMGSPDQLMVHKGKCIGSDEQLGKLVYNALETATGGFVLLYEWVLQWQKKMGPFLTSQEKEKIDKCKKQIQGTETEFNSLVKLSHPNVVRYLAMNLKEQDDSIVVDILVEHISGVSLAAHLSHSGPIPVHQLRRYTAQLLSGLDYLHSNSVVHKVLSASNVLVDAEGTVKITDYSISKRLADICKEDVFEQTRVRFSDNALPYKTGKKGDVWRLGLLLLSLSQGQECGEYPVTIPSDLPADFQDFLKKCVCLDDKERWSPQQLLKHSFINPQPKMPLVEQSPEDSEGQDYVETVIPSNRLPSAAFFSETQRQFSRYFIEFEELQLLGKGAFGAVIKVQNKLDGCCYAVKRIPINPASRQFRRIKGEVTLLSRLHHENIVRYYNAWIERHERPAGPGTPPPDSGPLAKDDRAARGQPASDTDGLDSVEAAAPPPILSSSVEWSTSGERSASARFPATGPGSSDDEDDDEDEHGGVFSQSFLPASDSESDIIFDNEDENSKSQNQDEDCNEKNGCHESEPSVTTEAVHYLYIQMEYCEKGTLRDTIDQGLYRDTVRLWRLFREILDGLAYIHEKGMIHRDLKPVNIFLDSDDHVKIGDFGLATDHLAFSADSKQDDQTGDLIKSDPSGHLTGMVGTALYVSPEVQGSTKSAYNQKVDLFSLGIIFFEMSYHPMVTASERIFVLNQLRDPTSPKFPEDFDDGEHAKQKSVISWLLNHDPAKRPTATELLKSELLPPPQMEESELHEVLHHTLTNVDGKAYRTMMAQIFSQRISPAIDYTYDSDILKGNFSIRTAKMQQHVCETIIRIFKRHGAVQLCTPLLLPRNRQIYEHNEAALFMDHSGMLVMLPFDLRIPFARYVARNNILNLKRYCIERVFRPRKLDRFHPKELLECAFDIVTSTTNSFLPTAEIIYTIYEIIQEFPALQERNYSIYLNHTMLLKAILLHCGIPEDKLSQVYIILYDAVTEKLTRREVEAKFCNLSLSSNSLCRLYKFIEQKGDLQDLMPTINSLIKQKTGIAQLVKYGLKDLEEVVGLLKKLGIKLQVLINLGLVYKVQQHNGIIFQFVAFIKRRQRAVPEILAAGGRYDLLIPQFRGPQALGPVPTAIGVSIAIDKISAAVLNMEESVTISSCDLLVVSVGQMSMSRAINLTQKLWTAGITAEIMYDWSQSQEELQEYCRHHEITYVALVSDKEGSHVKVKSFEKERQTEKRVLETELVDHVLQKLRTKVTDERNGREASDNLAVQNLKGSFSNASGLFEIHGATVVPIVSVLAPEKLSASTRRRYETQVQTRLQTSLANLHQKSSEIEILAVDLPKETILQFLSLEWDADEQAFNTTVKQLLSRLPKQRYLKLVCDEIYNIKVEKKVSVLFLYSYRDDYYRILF

[18] = target: Dual specificity tyrosine-phosphorylation-regulated kinase 1A (Homo sapiens) (UniProt Q13627); conditions: Compound concentration 1000.0 nM
[19] = target: Ribosomal protein S6 kinase alpha-4 (Homo sapiens) (UniProt O75676); conditions: Compound concentration 1000.0 nM
[20] = target: Serine/threonine-protein kinase 32A (Homo sapiens) (UniProt Q8WU08); conditions: Compound concentration 1000.0 nM
[21] = target: Mu-type opioid receptor (Homo sapiens) (UniProt P35372); conditions: Compound concentration 10.0 uM
[22] = target: Tyrosine-protein kinase Fes/Fps (Homo sapiens) (UniProt P07332); conditions: Compound concentration 1000.0 nM
[23] = target: Tyrosine-protein kinase CSK (Homo sapiens) (UniProt P41240); conditions: Compound concentration 1000.0 nM
[24] = target: Beta-2 adrenergic receptor (Homo sapiens) (UniProt P07550); conditions: Compound concentration 10.0 uM
[25] = target: Eukaryotic translation initiation factor 2-alpha kinase 1 (Homo sapiens) (UniProt Q9BQI3); conditions: Compound concentration 1000.0 nM
[26] = target: BDNF/NT-3 growth factors receptor (Homo sapiens) (UniProt Q16620); conditions: Compound concentration 1000.0 nM
[27] = target: STE20/SPS1-related proline-alanine-rich protein kinase (Homo sapiens) (UniProt Q9UEW8); conditions: Compound concentration 1000.0 nM
[28] = target: Serine/threonine-protein kinase PAK 2 (Homo sapiens) (UniProt Q13177); conditions: Compound concentration 1000.0 nM
[29] = target: D(2) dopamine receptor (Homo sapiens) (UniProt P14416); conditions: Compound concentration 10.0 uM
Sequence of D(2) dopamine receptor (Homo sapiens) (P14416 whole entry): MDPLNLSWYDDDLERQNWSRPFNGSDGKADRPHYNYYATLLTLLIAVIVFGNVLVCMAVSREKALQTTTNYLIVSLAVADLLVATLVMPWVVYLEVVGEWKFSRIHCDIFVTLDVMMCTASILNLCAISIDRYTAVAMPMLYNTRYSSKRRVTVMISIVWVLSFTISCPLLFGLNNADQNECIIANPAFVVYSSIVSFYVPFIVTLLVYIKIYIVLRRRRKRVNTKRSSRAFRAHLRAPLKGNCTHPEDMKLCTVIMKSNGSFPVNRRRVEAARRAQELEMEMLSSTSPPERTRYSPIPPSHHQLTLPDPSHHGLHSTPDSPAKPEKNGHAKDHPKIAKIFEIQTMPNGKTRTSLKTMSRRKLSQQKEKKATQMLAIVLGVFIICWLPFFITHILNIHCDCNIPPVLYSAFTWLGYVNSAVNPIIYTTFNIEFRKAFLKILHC

[30] = target: 5-hydroxytryptamine receptor 6 (Homo sapiens) (UniProt P50406); conditions: Compound concentration 10.0 uM
[31] = target: 5'-AMP-activated protein kinase catalytic subunit alpha-2 (Homo sapiens) (UniProt P54646); conditions: Compound concentration 1000.0 nM
[32] = system: ALK tyrosine kinase receptor (Homo sapiens), Q9UM73 [L1196M]; conditions: Compound concentration 1000.0 nM
[33] = target: Cyclin-dependent kinase 9 (Homo sapiens) (UniProt P50750); conditions: Compound concentration 1000.0 nM
[34] = target: Cytoplasmic tyrosine-protein kinase BMX (Homo sapiens) (UniProt P51813); conditions: Compound concentration 1000.0 nM
[35] = target: Activin receptor type-2B (Homo sapiens) (UniProt Q13705); conditions: Compound concentration 1000.0 nM
[36] = target: Hormonally up-regulated neu tumor-associated kinase (Homo sapiens) (UniProt P57058); conditions: Compound concentration 1000.0 nM
[37] = target: Serine/threonine-protein kinase MRCK beta (Homo sapiens) (UniProt Q9Y5S2); conditions: Compound concentration 1000.0 nM
[38] = system: Tyrosine-protein kinase ABL1 (Homo sapiens), P00519 [E255K]; conditions: Compound concentration 1000.0 nM
[39] = system: Mast/stem cell growth factor receptor Kit (Homo sapiens), P10721 [A829P]; conditions: Compound concentration 1000.0 nM
[40] = target: Kappa-type opioid receptor (Homo sapiens) (UniProt P41145); conditions: Compound concentration 10.0 uM
[41] = target: Calcium/calmodulin-dependent protein kinase type IV (Homo sapiens) (UniProt Q16566); conditions: Compound concentration 1000.0 nM
[42] = target: Ephrin type-B receptor 1 (Homo sapiens) (UniProt P54762); conditions: Compound concentration 1000.0 nM
[43] = target: Mitogen-activated protein kinase 14 (Homo sapiens) (UniProt Q16539); conditions: Compound concentration 1000.0 nM
Sequence of Mitogen-activated protein kinase 14 (Homo sapiens) (Q16539 whole entry): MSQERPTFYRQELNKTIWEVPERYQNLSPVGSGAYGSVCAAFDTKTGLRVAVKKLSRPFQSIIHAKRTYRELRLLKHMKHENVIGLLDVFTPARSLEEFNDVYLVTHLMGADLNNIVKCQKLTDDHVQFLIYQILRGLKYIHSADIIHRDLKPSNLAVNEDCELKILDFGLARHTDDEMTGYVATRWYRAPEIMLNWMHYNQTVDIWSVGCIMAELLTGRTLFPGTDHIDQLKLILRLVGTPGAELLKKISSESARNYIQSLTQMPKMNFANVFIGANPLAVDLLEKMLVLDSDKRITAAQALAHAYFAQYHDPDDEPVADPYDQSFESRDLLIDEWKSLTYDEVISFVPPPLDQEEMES

[44] = target: Mitogen-activated protein kinase kinase kinase 19 (Homo sapiens) (UniProt Q56UN5); conditions: Compound concentration 1000.0 nM
Sequence of Mitogen-activated protein kinase kinase kinase 19 (Homo sapiens) (Q56UN5 whole entry): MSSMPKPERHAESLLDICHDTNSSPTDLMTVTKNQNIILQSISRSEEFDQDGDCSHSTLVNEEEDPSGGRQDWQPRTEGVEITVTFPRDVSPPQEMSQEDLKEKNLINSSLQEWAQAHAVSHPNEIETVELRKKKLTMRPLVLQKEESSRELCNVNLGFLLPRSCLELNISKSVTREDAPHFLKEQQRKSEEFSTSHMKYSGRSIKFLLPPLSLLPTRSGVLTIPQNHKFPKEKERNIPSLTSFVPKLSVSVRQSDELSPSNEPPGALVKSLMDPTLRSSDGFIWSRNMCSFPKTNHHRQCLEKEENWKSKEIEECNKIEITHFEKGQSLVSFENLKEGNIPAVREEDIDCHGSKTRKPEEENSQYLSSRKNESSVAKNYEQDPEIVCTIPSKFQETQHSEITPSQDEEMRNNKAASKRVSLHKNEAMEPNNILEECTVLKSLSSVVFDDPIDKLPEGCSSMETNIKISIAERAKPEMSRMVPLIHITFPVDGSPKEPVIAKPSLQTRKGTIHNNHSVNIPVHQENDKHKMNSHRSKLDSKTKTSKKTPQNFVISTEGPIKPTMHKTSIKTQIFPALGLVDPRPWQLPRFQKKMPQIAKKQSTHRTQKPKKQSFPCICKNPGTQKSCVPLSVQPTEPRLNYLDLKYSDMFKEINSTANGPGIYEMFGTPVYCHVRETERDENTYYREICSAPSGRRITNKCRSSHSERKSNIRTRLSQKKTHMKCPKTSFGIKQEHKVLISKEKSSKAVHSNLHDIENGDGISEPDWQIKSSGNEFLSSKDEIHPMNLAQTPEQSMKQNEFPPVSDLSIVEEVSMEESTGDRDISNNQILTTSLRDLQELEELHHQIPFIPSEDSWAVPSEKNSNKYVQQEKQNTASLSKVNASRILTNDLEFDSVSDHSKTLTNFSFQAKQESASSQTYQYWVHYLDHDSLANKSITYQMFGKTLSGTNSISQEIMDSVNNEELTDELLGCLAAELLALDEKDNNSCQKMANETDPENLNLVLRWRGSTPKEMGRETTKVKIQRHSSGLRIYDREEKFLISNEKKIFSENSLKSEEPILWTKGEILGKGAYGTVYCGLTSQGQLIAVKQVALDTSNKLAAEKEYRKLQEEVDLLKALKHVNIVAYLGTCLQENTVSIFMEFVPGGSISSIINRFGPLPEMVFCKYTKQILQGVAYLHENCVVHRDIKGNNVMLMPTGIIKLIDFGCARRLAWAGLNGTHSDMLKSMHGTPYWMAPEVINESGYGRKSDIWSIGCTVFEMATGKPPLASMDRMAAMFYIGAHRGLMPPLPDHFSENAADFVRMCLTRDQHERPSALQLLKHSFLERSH

[45] = target: Serine/threonine-protein kinase PAK 5 (Homo sapiens) (UniProt Q9P286); conditions: Compound concentration 1000.0 nM
[46] = target: 5-hydroxytryptamine receptor 2A (Homo sapiens) (UniProt P28223); conditions: Compound concentration 10.0 uM

Sequence of Ephrin type-A receptor 1 (Homo sapiens) (P21709 whole entry): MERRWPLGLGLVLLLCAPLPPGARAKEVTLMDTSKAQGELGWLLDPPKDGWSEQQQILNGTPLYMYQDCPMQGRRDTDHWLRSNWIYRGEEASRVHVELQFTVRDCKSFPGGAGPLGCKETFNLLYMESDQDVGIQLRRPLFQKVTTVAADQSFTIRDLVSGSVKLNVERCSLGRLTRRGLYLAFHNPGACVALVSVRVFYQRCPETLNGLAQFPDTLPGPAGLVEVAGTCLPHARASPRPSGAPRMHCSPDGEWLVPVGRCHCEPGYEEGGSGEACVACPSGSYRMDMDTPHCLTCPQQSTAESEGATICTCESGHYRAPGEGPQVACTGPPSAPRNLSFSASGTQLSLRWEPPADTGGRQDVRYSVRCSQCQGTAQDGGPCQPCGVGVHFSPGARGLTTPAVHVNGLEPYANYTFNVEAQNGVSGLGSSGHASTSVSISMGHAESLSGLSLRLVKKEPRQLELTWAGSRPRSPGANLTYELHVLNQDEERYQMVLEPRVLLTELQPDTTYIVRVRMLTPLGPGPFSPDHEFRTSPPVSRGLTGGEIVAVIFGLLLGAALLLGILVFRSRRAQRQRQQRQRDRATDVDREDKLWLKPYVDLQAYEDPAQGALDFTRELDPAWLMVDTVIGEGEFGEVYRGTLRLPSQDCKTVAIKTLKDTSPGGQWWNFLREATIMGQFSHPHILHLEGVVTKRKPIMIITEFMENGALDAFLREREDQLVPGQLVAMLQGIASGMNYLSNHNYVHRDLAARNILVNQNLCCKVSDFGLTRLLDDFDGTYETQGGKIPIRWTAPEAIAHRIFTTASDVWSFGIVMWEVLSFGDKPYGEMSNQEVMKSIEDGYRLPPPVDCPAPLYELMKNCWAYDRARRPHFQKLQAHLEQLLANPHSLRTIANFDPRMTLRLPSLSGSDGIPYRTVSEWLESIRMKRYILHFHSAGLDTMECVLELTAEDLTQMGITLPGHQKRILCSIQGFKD

## C[C@@]1(Cc2ccc(C#N)cc2)C(=O)N(c2cc(Cl)cc(Cl)c2)c2ncc(C(=O)NC3(c4nc(C5CCC5)no4)CC3)n21 [BI 9446]
[1]
  inhibition: 22.4%
[2]
  residual activity: 100%
[3]
  residual activity: 100%
[4]
  residual activity: 100%
[5]
  residual activity: 83%
[6]
  residual activity: 100%
[7]
  residual activity: 100%
[8]
  residual activity: 100%
[9]
  residual activity: 87%
[10]
  inhibition: 8.3%
[11]
  residual activity: 100%
[12]
  residual activity: 100%
[13]
  residual activity: 100%
[14]
  residual activity: 100%
[15]
  residual activity: 100%
[16]
  residual activity: 92%
[17]
  residual activity: 100%
[18]
  residual activity: 99%
[19]
  residual activity: 100%
[20]
  residual activity: 100%
[21]
  inhibition: 31.1%
[22]
  residual activity: 100%
[23]
  residual activity: 98%
[24]
  inhibition: -7.08%
[25]
  residual activity: 100%
[26]
  residual activity: 100%
[27]
  residual activity: 91%
[28]
  residual activity: 64%
[29]
  inhibition: 16.4%
[30]
  inhibition: 16.1%
[31]
  residual activity: 100%
[32]
  residual activity: 100%
[33]
  residual activity: 100%
[34]
  residual activity: 40%
[35]
  residual activity: 100%
[36]
  residual activity: 100%
[37]
  residual activity: 100%
[38]
  residual activity: 95%
[39]
  residual activity: 100%
[40]
  inhibition: 12.6%
[41]
  residual activity: 100%
[42]
  residual activity: 87%
[43]
  residual activity: 100%
[44]
  residual activity: 100%
[45]
  residual activity: 100%
[46]
  inhibition: 31.9%

## C[C@H](NC(=O)c1cnc2n1[C@](C)(Cc1ccc(C#N)cc1)C(=O)N2c1cc(Cl)c(F)c(Cl)c1)C(=O)NC1(c2ccccn2)CC1 [BI 1950]
[1]
  inhibition: 12%
[2]
  residual activity: 100%
[3]
  residual activity: 100%
[4]
  residual activity: 100%
[5]
  residual activity: 88%
[6]
  residual activity: 100%
[7]
  residual activity: 92%
[8]
  residual activity: 100%
[9]
  residual activity: 100%
[10]
  inhibition: -0.33%
[11]
  residual activity: 94%
[12]
  residual activity: 75%
[13]
  residual activity: 100%
[14]
  residual activity: 100%
[15]
  residual activity: 100%
[16]
  residual activity: 75%
[17]
  residual activity: 100%
[18]
  residual activity: 100%
[19]
  residual activity: 92%
[20]
  residual activity: 83%
[21]
  inhibition: 17.4%
[22]
  residual activity: 100%
[23]
  residual activity: 100%
[24]
  inhibition: -9.72%
[25]
  residual activity: 93%
[26]
  residual activity: 100%
[27]
  residual activity: 24%
[28]
  residual activity: 92%
[29]
  inhibition: 7.62%
[30]
  inhibition: 6.67%
[31]
  residual activity: 100%
[32]
  residual activity: 100%
[33]
  residual activity: 100%
[34]
  residual activity: 77%
[35]
  residual activity: 100%
[36]
  residual activity: 100%
[37]
  residual activity: 100%
[38]
  residual activity: 93%
[39]
  residual activity: 100%
[40]
  inhibition: 9.67%
[41]
  residual activity: 100%
[42]
  residual activity: 85%
[43]
  residual activity: 100%
[44]
  residual activity: 100%
[45]
  residual activity: 100%
[46]
  inhibition: 9.3%
